Experimental data: ChEMBL document CHEMBL5143525, “N-methylated diazabicyclo[3.2.2]nonane substituted triterpenoic acids are excellent, hyperbolic and selective inhibitors for butyrylcholinesterase” (Eur J Med Chem, 2022)
Calls of active or inactive are those of the source. The rule behind the calls is not given here.

molecular target: Cholinesterase (Equus caballus) (UniProt P81908); assay: Mixed type inhibition of equine serum BuChE by Dixon plot analysis
Sequence (P81908 whole entry): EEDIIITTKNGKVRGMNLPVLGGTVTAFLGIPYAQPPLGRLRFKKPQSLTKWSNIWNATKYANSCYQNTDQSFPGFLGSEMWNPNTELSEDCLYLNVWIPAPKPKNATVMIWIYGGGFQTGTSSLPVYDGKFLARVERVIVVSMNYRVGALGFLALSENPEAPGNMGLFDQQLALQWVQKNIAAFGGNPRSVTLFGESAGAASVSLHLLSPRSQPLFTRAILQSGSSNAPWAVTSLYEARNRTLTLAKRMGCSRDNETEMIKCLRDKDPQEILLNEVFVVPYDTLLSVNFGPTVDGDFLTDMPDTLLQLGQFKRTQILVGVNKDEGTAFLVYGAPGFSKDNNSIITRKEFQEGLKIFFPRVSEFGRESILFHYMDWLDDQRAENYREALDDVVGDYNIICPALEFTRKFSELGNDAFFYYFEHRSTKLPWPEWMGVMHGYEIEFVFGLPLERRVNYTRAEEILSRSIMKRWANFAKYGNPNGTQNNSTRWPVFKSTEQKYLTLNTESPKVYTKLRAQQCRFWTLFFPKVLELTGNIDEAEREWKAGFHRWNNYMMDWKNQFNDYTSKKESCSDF

Compound	inhibition mechanism
C=C(C)[C@@H]1CC[C@]2(C(=O)N3CC4CC[N+](C)(CC4)C3)CC[C@]3(C)[C@@H](CC[C@@H]4[C@@]5(C)CC[C@H](OC(C)=O)C(C)(C)[C@@H]5CC[C@]43C)[C@H]12	Active
CC(=O)O[C@H]1CC[C@]2(C)[C@H]3CC=C4[C@@H]5[C@@H](C)[C@H](C)CC[C@]5(C(=O)N5CC6CC[N+](C)(CC6)C5)CC[C@@]4(C)[C@]3(C)CC[C@H]2C1(C)C	Active
CC(=O)O[C@H]1CC[C@]2(C)[C@H]3C(=O)C[C@H]4[C@@H]5C[C@@](C)(C(=O)N6CC7CC[N+](C)(CC7)C6)CC[C@]5(C)CC[C@@]4(C)[C@]3(C)CC[C@H]2C1(C)C	Active
CC(=O)O[C@H]1CC[C@]2(C)[C@H]3CC[C@H]4[C@@H]5[C@H](C(C)=O)CC[C@]5(C(=O)N5CC6CC[N+](C)(CC6)C5)CC[C@@]4(C)[C@]3(C)CC[C@H]2C1(C)C	Active
CC(=O)O[C@H]1CC[C@]2(C)[C@H]3CC=C4[C@@H]5CC(C)(C)CC[C@]5(C(=O)N5CC6CC[N+](C)(CC6)C5)CC[C@@]4(C)[C@]3(C)CC[C@H]2C1(C)C	Active
